In patent US10188634B2, “3-(3H-imidazo[4,5-C]pyridin-2-yl)-1 H-pyrazolo[4,3-B]pyridines and therapeutic uses thereof” (Samumed, LLC, priority 2015, dated 2019):

Columns and labels:
[1] = tested on: Wnt activity (Sp5-Luc reporter, human Sp5 promoter with eight TCF/LEF binding sites) in SW480 colon carcinoma cells; assay: Screening assay for Wnt activity: Sp5-Luc reporter gene assay in SW480 cells; format: cell-based; conditions: for inhibition at 10 µM: read-out: percent inhibition at 10 μM (given for EC50 of >10 μM); for EC50: 10-point dose-response starting from 10 μM, overnight incubation
Outline: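 Luminescence (BrightGlo) read after overnight 37 °C exposure of Sp5-Luc SW480 reporter cells, 4,000/well in 1% FBS, to compound dosed 1:3 over 10 points from 10 μM with 0.1% DMSO. Values normalized to DMSO-only cells, fitted with variable-slope four-parameter model; where EC50 exceeds 10 μM, % inhibition at 10 μM reported.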

[2] = tested on: primary human mesenchymal stem cells (hMSCs); assay: Induction of chondrogenesis in primary human mesenchymal stem cells (hMSCs), nodule imaging with Rhodamine B / Nile Red; format: cell-based; conditions: for Emax: hMSCs chondrogenesis, TGF-β3 (10 ng/mL) as positive control, read-out: Max. Activity as % TGF-β3 activity; for EC50: hMSCs, concentration required to induce 50% levels of chondrogenesis vs TGF-β3 positive control, read-out: Conc (nM) of 50% TGF-β3 activity
Protocol: Representative compounds were screened using primary human mesenchymal stem cells (hMSCs) to determine their ability to induce chondrogenesis (process by which cartilage is developed).
Human Mesenchymal Stem Cell Culture: Primary human mesenchymal stem cells (hMSCs) were purchased from Lonza (Walkersville, Md.) and expanded in Mesenchymal Stem Cell Growth Media (Lonza). Cells between passage 3 and 6 were used for the experiments.
Compound Screening: Each compound was dissolved in DMSO as a 10 mM stock and used to prepare compound source plates. For the 96 well assay, serial dilution (1:3, 6-point dose-response curves from 2700 nM to 10 nM) and compound transfer was performed using the ECHO 550 (Labcyte, Sunnyvale, Calif.) into 96-well clear bottom assay plates (Greiner Bio-One) with appropriate DMSO backfill for a final DMSO concentration of 0.03%. hMSCs were plated at 20,000 cells/well in 250 μL/well Incomplete Chondrogenic Induction Medium (Lonza; DMEM, dexamethasone, ascorbate, insulin-transferrin-selenium [ITS supplement], gentamycin-amphotericin [GA-1000], sodium pyruvate, proline and L-glutamine). TGF-β3 (10 ng/mL) was used as a positive control for differentiation while negative control wells were treated with 75 nL DMSO for normalization and calculating EC50 values. For the 384 well assay, serial dilution (1:3, 8-point dose-response curves from 5000 nM to 2.2 nM) and compound transfer was performed using the ECHO 550 (Labcyte, Sunnyvale, Calif.) into 384-well clear bottom assay plates (Greiner Bio-One) with appropriate DMSO backfill for a final DMSO concentration of 0.03%. hMSCs were plated at 8,000 cells/well in 80 μL/well Incomplete Chondrogenic Induction Medium (Lonza; DMEM, dexamethasone, ascorbate, insulin-transferrin-selenium [ITS supplement], gentamycin-amphotericin [GA-1000], sodium pyruvate, proline and L-glutamine). TGF-β3 (10 ng/mL) was used as a positive control for differentiation while negative control wells were treated with 25 nL DMSO for normalization and calculating EC50 values. Cells were incubated at 37° C. and 5% CO2 for 6 days. To image chondrogenic nodules, the cells were fixed using 4% formaldehyde (Electron Microscopy Sciences), and stained with 2 μg/mL Rhodamine B (Sigma-Aldrich) and 20 μM Nile Red (Sigma-Aldrich) [Johnson K., et.al, A Stem Cell-Based Approach to Cartilage Repair, Science, (2012), 336(6082). 717-721]. The nodules imaged (25 images per well for 96 well plates and 9 images per well for 384 well plates at 10× magnification) by excitation at 531 nm and emission at 625 nm and quantified using the CellInsight CX5 (Thermo Scientific). Area of nodules in each well was normalized to the average of 3 DMSO treated wells on the same plate using Excel (Microsoft Inc.). The normalized averages (fold change over DMSO) of 2 or 3 replicate wells for each compound concentration were calculated. Due to solubility limitations of some of the compounds, curve fitting was incomplete leading to inaccurate EC50 determinations.
Using TGF-β3 as a positive control, the concentration of representative compounds required to induce 50% levels of chondrogenesis is reported. In addition, the maximum activity of each compound and the respective dose that each compound reached maximum chondrogenesis activity is reported.

Compound	inhibition at 10 µM [1]	EC50 [1]	Emax [2]	EC50 [2]
CC(C)C(=O)Nc1cncc(-c2ccc3[nH]nc(-c4nc5c(-c6ccccc6F)cncc5[nH]4)c3n2)c1 [Compound 65, N-(5-(3-(7-(2-fluorophenyl)-3H-imidazo[4,5-c]pyridin-2-yl)-1H-pyrazolo[4,3-b]pyridin-5-yl)pyridin-3-yl)isobutyramide]	1%	> 10 µM	181%	10 nM
c1cncc(-c2ccc3[nH]nc(-c4nc5c(-c6cccnc6)cncc5[nH]4)c3n2)c1 [Compound 88, 5-(Pyridin-3-yl)-3-(7-(pyridin-3-yl)-3H-imidazo[4,5-c]pyridin-2-yl)-1H-pyrazolo[4,3-b]pyridine]	28%	> 10 µM	84%	30 nM
CC(C)C(=O)Nc1cncc(-c2ccc3[nH]nc(-c4nc5c(-c6cccnc6)cncc5[nH]4)c3n2)c1 [Compound 93, N-(5-(3-(7-(Pyridin-3-yl)-3H-imidazo[4,5-c]pyridin-2-yl)-1H-pyrazolo[4,3-b]pyridin-5-yl)pyridin-3-yl)isobutyramide]	18.3%	> 10 µM	336%	1670 nM
Cc1ccncc1-c1ccc2[nH]nc(-c3nc4c(-c5ccncc5)cncc4[nH]3)c2n1 [Compound 117, 5-(4-Methylpyridin-3-yl)-3-(7-(pyridin-4-yl)-3H-imidazo[4,5-c]pyridin-2-yl)-1H-pyrazolo[4,3-b]pyridine]	23.1%	> 10 µM	68%	30 nM
CCCC(=O)Nc1cncc(-c2ccc3[nH]nc(-c4nc5c(-c6ccncc6)cncc5[nH]4)c3n2)c1 [Compound 129, N-(5-(3-(7-(Pyridin-4-yl)-3H-imidazo[4,5-c]pyridin-2-yl)-1H-pyrazolo[4,3-b]pyridin-5-yl)pyridin-3-yl)butyramide]	0%	> 10 µM	31%	
CCNCc1cncc(-c2ccc3[nH]nc(-c4nc5c(-c6ccccn6)cncc5[nH]4)c3n2)c1 [Compound 146, N-((5-(3-(7-(Pyridin-2-yl)-3H-imidazo[4,5-c]pyridin-2-yl)-1H-pyrazolo[4,3-b]pyridin-5-yl)pyridin-3-yl)methyl)ethanamine]	14.2%	> 10 µM	50%	
CCCCC(=O)Nc1cncc(-c2ccc3[nH]nc(-c4nc5c(-c6ccccn6)cncc5[nH]4)c3n2)c1 [Compound 159, N-(5-(3-(7-(Pyridin-2-yl)-3H-imidazo[4,5-c]pyridin-2-yl)-1H-pyrazolo[4,3-b]pyridin-5-yl)pyridin-3-yl)pentanamide]	1%	> 10 µM	86%	30 nM
CCC(=O)Nc1cncc(-c2ccc3[nH]nc(-c4nc5c(N6CCCCC6)cncc5[nH]4)c3n2)c1 [Compound 169, N-(5-(3-(7-(Piperidin-1-yl)-3H-imidazo[4,5-c]pyridin-2-yl)-1H-pyrazolo[4,3-b]pyridin-5-yl)pyridin-3-yl)propionamide]	2.3%	> 10 µM	70%	900 nM
CN(C)Cc1cncc(-c2ccc3[nH]nc(-c4nc5c(N6CCCCC6)cncc5[nH]4)c3n2)c1 [Compound 181, N,N-Dimethyl-1-(5-(3-(7-(piperidin-1-yl)-3H-imidazo[4,5-c]pyridin-2-yl)-1H-pyrazolo[4,3-b]pyridin-5-yl)pyridin-3-yl)methanamine]	33.1%	> 10 µM	84%	900 nM
Cc1cn(-c2cncc3[nH]c(-c4n[nH]c5ccc(-c6cncc(NC(=O)CC(C)C)c6)nc45)nc23)cn1 [Compound 198, 3-Methyl-N-(5-(3-(7-(4-methyl-1H-imidazol-1-yl)-3H-imidazo[4,5-c]pyridin-2-yl)-1H-pyrazolo[4,3-b]pyridin-5-yl)pyridin-3-yl)butanamide]	1.8%	> 10 µM	59%	100 nM
